Read-outs that look alike come from different tables or passages of the source.
Columns and labels:
JAK1-JH2 domain = biological target: T1, JAK1-JH2 domain (Homo sapiens, UniProt P23458); test: Binding activity test for JH2 domain of JAK1 (Tb-antibody/tracer FRET)
T1 construct: JAK1-JH2 domain or TYK2-JH2 domain enzyme in assay buffer
Experimental: Binding Activity test for JH2 domain of JAK1 and TYK2 […] Add 8μL/well in echo source plate, echo will add 75nL/well with 3-fold serial dilution for 11 points in assay plate. 75nL DMSO for high control and low control. […] For low control, add 5μL/well assay buffer. And then spin down at 1000rpm and centrifuge for 30 seconds. After enzyme system prepared, add 5μL of Tb-antibody solution into each well of assay plate. Spin down at 1000 rpm and centrifuge for 30sec. After Tb-antibody added, also add 5μL of tracer into the assay plate. Spin down at 1000rpm and centrifuge for 30sec. Incubate for […] at 25°C firstly and then continue to incubate the plate at 4°C overnight. Read by envision in FRET mode. The Luminescence value was recorded by a multi-label reader Envision (PerkinElmer). […] Table 2. IC50 on JH2 domain activity (nM)

TYK2-JH2 domain = biological target: T2, TYK2-JH2 domain (Homo sapiens, UniProt P29597); test: Binding activity test for JH2 domain of TYK2 (Tb-antibody/tracer FRET)
T2 construct: JAK1-JH2 domain or TYK2-JH2 domain enzyme in assay buffer
T2 sequence (P29597 589-875 limits assumed): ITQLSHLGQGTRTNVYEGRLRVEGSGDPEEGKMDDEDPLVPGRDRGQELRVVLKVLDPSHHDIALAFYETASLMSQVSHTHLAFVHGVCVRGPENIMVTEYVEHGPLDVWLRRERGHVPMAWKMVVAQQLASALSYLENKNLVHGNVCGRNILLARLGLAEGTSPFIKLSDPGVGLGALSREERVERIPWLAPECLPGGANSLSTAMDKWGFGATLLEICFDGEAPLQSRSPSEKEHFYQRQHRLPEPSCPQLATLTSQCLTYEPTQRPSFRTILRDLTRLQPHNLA
Method in brief: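 IC50 values (nM) come from TR-FRET readings taken after a 25°C incubation followed by overnight at 4°C. Each well held JH2 domain protein, Tb-antibody, tracer and test compound titrated in 11 threefold steps, with DMSO high and low controls.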

[1] = system: Ba/F3-FL-TYK2-P760L cells; test: Anti-proliferative assay in engineered Ba/F3 cells (Cell-Titer Glo, 72 h); format: cell-based; conditions: concentration that causes 50% growth inhibition, read-out: Baf3-FL-T2P760L
Method in brief: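 IC50 from luminescent ATP viability after 72 h compound exposure (37 °C, 5% CO2), % inhibition normalised to DMSO-treated cells minus medium blank. IL-3-free Ba/F3-FL-TYK2-P760L (Tel-JAK fusion) cells in 10% FBS RPMI-1640 received 9 three-fold doses, top 20 µM, 0.1% DMSO.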

[2] = JH2 domain enzyme; 60 min at 25°C, then 4°C overnight; read-out: JAK1 JH2 Binding IC50
[3] = JH2 domain enzyme; 60 min at 25°C, then 4°C overnight; read-out: TYK2 JH2 Binding IC50
[4] = ratio of JAK1 JH2 to TYK2 JH2 binding IC50
[5] = Mus musculus, BaF3, 72 h, 72 h compound treatment

T1 sequence (P23458 583-855 limits assumed): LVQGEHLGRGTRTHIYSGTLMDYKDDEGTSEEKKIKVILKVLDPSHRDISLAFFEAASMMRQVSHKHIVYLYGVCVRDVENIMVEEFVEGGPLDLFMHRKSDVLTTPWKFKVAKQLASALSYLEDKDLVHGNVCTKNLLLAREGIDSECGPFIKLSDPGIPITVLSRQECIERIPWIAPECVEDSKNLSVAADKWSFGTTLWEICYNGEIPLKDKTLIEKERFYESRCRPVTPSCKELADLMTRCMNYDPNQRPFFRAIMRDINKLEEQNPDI

| SMILES | IC50 (JAK1-JH2 domain; [2]) | IC50 (TYK2-JH2 domain; [3]) | JAK1/TYK2 selectivity (TYK2-JH2 domain; [4]) | IC50 [1, 5] | IC50 ([1]; 72 h compound treatment) | IC50 (JAK1-JH2 domain; read-out: JAK1 JH2 Binding IC50; JH2 domain enzyme; 60 min at 25°C, then 4°C overnight) | IC50 (TYK2-JH2 domain; read-out: TYK2 JH2 Binding IC50; JH2 domain enzyme; 60 min at 25°C, then 4°C overnight) | IC50 ([1]; Mus musculus, BaF3, 72 h compound treatment) |
| --- | --- | --- | --- | --- | --- | --- | --- | --- |
| COC(=O)c1cnc2cc1Nc1cc(cc(-c3ccn(C)n3)c1OC)CCOCc1cccc(n1)N2 [Example 105, Methyl 10-methoxy-11-(1-methyl-1H-pyrazol-3-yl)-16-oxa-2,4,8,22-tetraazatetracyclo[16.3.1.1^{3,7}.1^{9,13}]tetracosa-1(22),3,5,7(24),9(23),10,12,18,20-nonaene-6-carboxylate] | 232 nM | 1.21 nM | 191.94 | 66.8 nM |  |  |  |  |
| [2H]C([2H])([2H])NC(=O)c1cnc(NC(=O)[C@@H]2C[C@@H]2F)cc1Nc1cnn2ccc(C(O)C(F)(F)F)c(OC)c12 (single isomer, unassigned) [Example 15B, 6-((1S,2S)-2-fluorocyclopropane-1-carboxamido)-4-((4-methoxy-5-((R*)-2,2,2-trifluoro-1-hydroxyethyl)pyrazolo[1,5-a]pyridin-3-yl)amino)-N-(methyl-d3)nicotinamide] | 20 nM | 0.375 nM | 53.3 |  | 870 nM |  |  |  |
| COC(=O)c1nnc(NC(=O)C2CC2)cc1Nc1cccc(-c2ncn(C)n2)c1OC [Example 85, Methyl 6-(cyclopropanecarboxamido)-4-((2-methoxy-3-(1-methyl-1H-1,2,4-triazol-3-yl)phenyl)amino)pyridazine-3-carboxylate] | > 298 nM | 198 nM | >1.51 | > 5000 nM |  |  |  |  |
| [2H]C([2H])([2H])OC(=O)c1cnc(NC(=O)C2CC2)cc1Nc1ncn2ncc(C(OC)C(F)(F)F)c2c1OC (centres unmarked) [Example 81, Methyl-d3 6-(cyclopropanecarboxamido)-4-((4-methoxy-3-(2,2,2-trifluoro-1-methoxyethyl)pyrazolo[1,5-c]pyrimidin-5-yl)amino)nicotinate] | > 298 nM | 4.02 nM | >74.25 | 306 nM |  |  |  |  |
| [2H]C([2H])([2H])NC(=O)c1cnc(NC(=O)C2CC2)cc1Nc1cnn2ccc([C@H](OC([2H])([2H])[2H])C(F)(F)F)c(OC)c12 [Example 28, (S)-6-(cyclopropanecarboxamido)-4-((4-methoxy-5-(2,2,2-trifluoro-1-(methoxy-d3)ethyl)pyrazolo[1,5-a]pyridin-3-yl)amino)-N-(methyl-d3)nicotinamide] | 7.48 nM | 0.073 nM | 102.5 | 10.7 nM |  |  |  |  |
| [2H]C([2H])([2H])NC(=O)c1cnc(NC(=O)C2CC2)cc1Nc1cnn2ccc(C(F)(F)F)c(OC)c12 [Example 10, 6-(Cyclopropanecarboxamido)-4-((4-methoxy-5-(trifluoromethyl)pyrazolo[1,5-a]pyridin-3-yl)amino)-N-(methyl-d3)nicotinamide] | 9.71 nM | 0.224 nM | 43.3 | 120 nM |  |  |  |  |
| [2H]C([2H])([2H])NC(=O)c1cnc(Nc2ccc(F)cn2)cc1Nc1nn(C)c2ccc([C@H](OC)C(F)(F)F)c(OC)c12 [Example 171, (S)-6-((5-fluoropyridin-2-yl)amino)-4-((4-methoxy-1-methyl-5-(2,2,2-trifluoro-1-methoxyethyl)-1H-indazol-3-yl)amino)-N-(methyl-d3)nicotinamide] | 17 nM | 0.171 nM | 99.17 | 1.03 nM |  |  |  |  |
| [2H]C([2H])([2H])NC(=O)c1cnc(NC(=O)[C@@H]2C[C@@H]2F)cc1Nc1cnn2cnc(C(O)C(F)(F)F)c(OC)c12 (some centres unmarked) [Example 39, 6-((18,25)-2-fluorocyclopropane-1-carboxamido)-4-((4-methoxy-5-(2,2,2-trifluoro-1-hydroxyethyl)pyrazolo[1,5-c]pyrimidin-3-yl)amino)-N-(methyl-d3)nicotinamide] |  |  | >532.1 |  |  | > 298 nM | 0.561 nM | 350 nM |

— patent EP4813463A2, “TYK2 INHIBITORS AND COMPOSITIONS AND METHODS THEREOF” (Lynk Pharmaceuticals Co. Ltd., priority 2023, dated 2024)
